Laboratory results from PubChem BioAssay AID2060330 (Molecular Pharmacology Branch, DTP, NCI, 2025).

Test system: LG0703-F948-PDC spheroids with HUVEC/MSC, viability
Assay: Anticancer human tumor LG0703-F948-PDC patient-derived lung adenocarcinoma cell line growth inhibition [IpAb]
Settings: for IC50: curve of first compound; for viability, T/C: stronger effect = lower value
Procedure, shortened: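 Spheroids of 60% malignant cells, 25% HUVEC and 15% MSC were exposed to targeted agents combined with ipatasertib or abemaciclib. Doses started at or near clinical Cmax (10 microM when unknown) and fell in half-log steps.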
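Note: spheroids exposed to compounds for seven days before readout.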
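Throughout, for viability, T/C: T/C percent relative to DMSO vehicle wells set as 100% viability.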

Q: Which results are given for `C=CC(=O)N1CCN(c2nc(=O)n(-c3c(C)ccnc3C(C)C)c3nc(-c4c(O)cccc4F)c(F)cc23)C(C)C1` (stereo not given) + CC(C)NCC(C(=O)N1CCN(c2ncnc3c2C(C)CC3O)CC1)c1ccc(Cl)cc1?
A: IC50 (second compound 0.1 µM): > 10000 nM; IC50 (second compound 0.316 µM): > 10000 nM; IC50 (second compound 1 µM): 3340 nM; IC50 (second compound 3.16 µM): < 31.6 nM; IC50 (second compound 10 µM): < 31.6 nM; viability, T/C (second compound 0.1 µM, first compound 0.0316 µM): 87.5%; viability, T/C (second compound 0.1 µM, first compound 0.1 µM): 86.1%; viability, T/C (second compound 0.1 µM, first compound 0.316 µM): 92.7%; viability, T/C (second compound 0.1 µM, first compound 1 µM): 91.1%; viability, T/C (second compound 0.1 µM, first compound 3.16 µM): 90.6%; viability, T/C (second compound 0.1 µM, first compound 10 µM): 54.3%; viability, T/C (second compound 0.316 µM, first compound 0.0316 µM): 64.5%; viability, T/C (second compound 0.316 µM, first compound 0.1 µM): 67.1%; viability, T/C (second compound 0.316 µM, first compound 0.316 µM): 62.6%; viability, T/C (second compound 0.316 µM, first compound 1 µM): 71.6%; viability, T/C (second compound 0.316 µM, first compound 3.16 µM): 73.5%; viability, T/C (second compound 0.316 µM, first compound 10 µM): 46.4%; viability, T/C (second compound 1 µM, first compound 0.0316 µM): 54.9%; viability, T/C (second compound 1 µM, first compound 0.1 µM): 56.5%; viability, T/C (second compound 1 µM, first compound 0.316 µM): 58%; viability, T/C (second compound 1 µM, first compound 1 µM): 54.4%; viability, T/C (second compound 1 µM, first compound 3.16 µM): 50.8%; viability, T/C (second compound 1 µM, first compound 10 µM): 34.5%; viability, T/C (second compound 3.16 µM, first compound 0.0316 µM): 44.5%; viability, T/C (second compound 3.16 µM, first compound 0.1 µM): 52.9%; viability, T/C (second compound 3.16 µM, first compound 0.316 µM): 48.5%; viability, T/C (second compound 3.16 µM, first compound 1 µM): 47%; viability, T/C (second compound 3.16 µM, first compound 3.16 µM): 45.6%; viability, T/C (second compound 3.16 µM, first compound 10 µM): 30.7%; viability, T/C (second compound 10 µM, first compound 0.0316 µM): 40%; viability, T/C (second compound 10 µM, first compound 0.1 µM): 39%; viability, T/C (second compound 10 µM, first compound 0.316 µM): 40.9%; viability, T/C (second compound 10 µM, first compound 1 µM): 42.7%; viability, T/C (second compound 10 µM, first compound 3.16 µM): 38.1%; viability, T/C (second compound 10 µM, first compound 10 µM): 22.5%

Q: How did the IC50 (second compound 0.1 µM) turn out when `CC(C)(C)c1cnc(CSc2cnc(NC(=O)C3CCNCC3)s2)o1` + CC(C)NCC(C(=O)N1CCN(c2ncnc3c2C(C)CC3O)CC1)c1ccc(Cl)cc1 was run?
A: 74.3 nM

Q: And the IC50 (second compound 0.316 µM)?
A: 36.9 nM

Q: What about the IC50 (second compound 1 µM) of the same compound?
A: 15.5 nM

Q: What about the IC50 (second compound 3.16 µM) of the same compound?
A: < 9.49 nM

Q: What about the IC50 (second compound 10 µM) of the same compound?
A: < 9.49 nM

Q: And the viability, T/C (second compound 0.1 µM, first compound 0.00949 µM)?
A: 78.5%

Q: And the viability, T/C (second compound 0.1 µM, first compound 0.03 µM)?
A: 74%

Q: And the viability, T/C (second compound 0.1 µM, first compound 0.0949 µM)?
A: 43.3%

Q: What about the viability, T/C (second compound 0.1 µM, first compound 0.3 µM) of the same compound?
A: 0.48%

Q: What about the viability, T/C (second compound 0.1 µM, first compound 0.949 µM) of the same compound?
A: 0.41%

Q: And the viability, T/C (second compound 0.1 µM, first compound 3 µM)?
A: 0.23%

Q: And the viability, T/C (second compound 0.316 µM, first compound 0.00949 µM)?
A: 61.5%

Q: And the viability, T/C (second compound 0.316 µM, first compound 0.03 µM)?
A: 51.2%

Q: What about the viability, T/C (second compound 0.316 µM, first compound 0.0949 µM) of the same compound?
A: 30.8%

Q: What about the viability, T/C (second compound 0.316 µM, first compound 0.3 µM) of the same compound?
A: 0.34%

Q: And the viability, T/C (second compound 0.316 µM, first compound 0.949 µM)?
A: 0.3%

Q: And the viability, T/C (second compound 0.316 µM, first compound 3 µM)?
A: 0.29%

Q: What about the viability, T/C (second compound 1 µM, first compound 0.00949 µM) of the same compound?
A: 52%

Q: What about the viability, T/C (second compound 1 µM, first compound 0.03 µM) of the same compound?
A: 47.5%

Q: And the viability, T/C (second compound 1 µM, first compound 0.0949 µM)?
A: 24.2%

Q: And the viability, T/C (second compound 1 µM, first compound 0.3 µM)?
A: 0.43%

Q: What about the viability, T/C (second compound 1 µM, first compound 0.949 µM) of the same compound?
A: 0.34%

Q: What about the viability, T/C (second compound 1 µM, first compound 3 µM) of the same compound?
A: 0.31%

Q: And the viability, T/C (second compound 3.16 µM, first compound 0.00949 µM)?
A: 44.7%

Q: What about the viability, T/C (second compound 3.16 µM, first compound 0.03 µM) of the same compound?
A: 37.4%

Q: What about the viability, T/C (second compound 3.16 µM, first compound 0.0949 µM) of the same compound?
A: 15.4%

Q: What about the viability, T/C (second compound 3.16 µM, first compound 0.3 µM) of the same compound?
A: 0.55%

Q: And the viability, T/C (second compound 3.16 µM, first compound 0.949 µM)?
A: 1.3%

Q: And the viability, T/C (second compound 3.16 µM, first compound 3 µM)?
A: 0.69%

Q: And the viability, T/C (second compound 10 µM, first compound 0.00949 µM)?
A: 35.1%

Q: What about the viability, T/C (second compound 10 µM, first compound 0.03 µM) of the same compound?
A: 31.5%

Q: What about the viability, T/C (second compound 10 µM, first compound 0.0949 µM) of the same compound?
A: 28.2%

Q: What about the viability, T/C (second compound 10 µM, first compound 0.3 µM) of the same compound?
A: 1.21%

Q: What about the viability, T/C (second compound 10 µM, first compound 0.949 µM) of the same compound?
A: 0.81%

Q: And the viability, T/C (second compound 10 µM, first compound 3 µM)?
A: 0.34%
